Measured values from patent US12618835B2, “Multiplex microelectrode array for detection of proteases as biomarkers” (Kansas State University Research Foundation, priority 2021, dated 2026).
Where no end group is shown, it is not given here. [ ]: non-standard residue; d: D form. The star is where a group is joined. aminomethylferrocene = [Fe+2].c1cc[c-](CN*)c1.c1cc[cH-]c1; Ava = NCCCCC(=O)O

System: cathepsin B in human serum
Assay: Electrochemical (ACV) proteolysis of peptide-Fc on Au MEA by diluted human serum, with and without spiked rhCB
Assay type: biochemical
Protocol: Electrochemical Experiments. Electrochemical experiments were performed on a specially designed electrochemical cell mounted on a large copper block for temperature control by circulating thermostatic silicone liquid through the internal channels. The thermal circulator (Julabo, Allentown, PA) was set to achieve a temperature of 38.6° C. Two buffer solutions, 0.5×PB (pH=7.4) and 25 mM MES (pH=5.0), were used. In some experiments, the rhCB was activated by incubation in 25 mM MES buffer (pH=5.0) containing 5 mM DTT for 15 min. About 10 uL activated cathepsin B solution was added to the electrochemical cell containing 815 uL buffer solution (i.e., 0.5×PB with pH=7.4) as the electrolyte. Fc signal on the Au surface was detected by alternating current voltammetry (ACV) with an AC frequency of 300 Hz and a voltage amplitude of 100 mV on a DC ramp from −0.45 V to 0.20 V vs. MSE. Electrochemical measurements were performed using an IVIUM n-Stat potentiostat (Eindhoven, The Netherlands), which allows measurement of up to ten independent working electrodes simultaneously versus a common MSE reference electrode and a common Pt coil counter electrode.
Electrochemical Detection of Cathepsin B Activity in Human Serum. To assess the activity of cathepsin B in HS, we compared the kinetic proteolysis curves of 5% HS in 0.5×PB with and without activation by the electrochemical method. The 5% HS concentration is slightly higher than the 2.5% used in ELISA measurements to ensure that a clear exponential decay can be observed in electrochemical experiments. To minimize errors, three Au MEA chips were prepared side-by-side for three sets of experiments, i.e., (i) non-activated 5% HS in 0.5×PB, (ii) activated 5% HS in 0.5×PB, and (iii) the blank 0.5×PB. […] Based on equation (2), the concentration of the active form of cathepsin B in non-activated and activated sample (equivalent to 100% HS) can be calculated by: […]
Electrochemical Assessment of Effective Cathepsin B Activity Spiked in Human Serum. […] The data were recorded over 8 channels of the peptide-Fc modified Au MEA simultaneously. […]

H2N-(CH2)4-CO-Pro-Leu-Ala-Phe-Val-Ala-NH-CH2-Fc ([Ava]PLAFVA-aminomethylferrocene) [Peptide H-15]
1/τ (activated 5% HS in 0.5×PB (DTT/MES), 8 channels): (33.2±3.0)×10^−4 s^−1 | 1/τ (non-activated 5% HS in 0.5×PB spiked with 0.40 nM naturally active cathepsin B (1.0 nM non-activated rhCB)): (12.99±1.66)×10^−4 s^−1 | 1/τ (non-activated 5% HS in 0.5×PB spiked with 1.0 nM activated cathepsin B): (68.4±7.53)×10^−4 s^−1
